This note sets out measurements from PMC6788984, “High-potency ligands for DREADD imaging and activation in rodents and monkeys” (Nature Communications, 2019).

Data set [1] deals with animals without DREADD expression. As to the kind of experiment: In vivo electrophysiology control: electrically evoked responses in animals without DREADD expression. Further details: species or system mouse. Conditions: same injection. The protocol:
For recording experiments, animals were anesthetized with […] urethane (i.p.), injected with 0.1 ml lidocaine (s.c.) in the incision points, and placed in a stereotaxic holder (Narishige, Japan). A trephine was drilled above the LA (from bregma, AP 1.5 mm, ML 3.1 mm) and the 32 channel opto-electrode was lowered whilst stimulating until a maximum response was located (DV 4 ± 0.2 mm). Body temperature was maintained constant at 37 °C through a feedback-regulated heating pad. Before recording, tissue was left for 10–20 mins for accommodation. Input–output test curves were recorded for both intensity and pulse length 30 min before and 1 h after drug injections using 1 ms-long pulses at 0.33 Hz (450 nm, 110 mA light intensity, ~14 mW, see Supplementary Fig. 10 Panel A). For electrical stimulation experiments (see Supplementary Fig. 10, Panels F–H), a stimulation bipolar twisted platinum–iridium microelectrode was placed in the internal capsule (AP −1.7 mm, ML 2.5 mm, DV 4.0 mm) to target the axons innervating the amygdala. Electrical pulses were given at an intensity that evoked 80% of the maximum response as biphasic 100 µs long pulses at 0.33 Hz.
Raw data were filtered (0.1–3000 Hz), amplified (100×), digitized and stored (10 kHz sampling rate) for offline analysis, with a tethered recording system (Multichannel Systems, Reutlingen, Germany). […]

The subject of another data set is DREADDs. As to the kind of experiment: [18F]JHU37107 PET in D1-DREADD transgenic mice. It is filed as in vivo. Conditions: D1-DREADD mice, 0.1 mg kg-1 IP. On the procedure: [^18F]JHU37107 was prepared via the no-carrier-added ^18F-fluorination using an FDG Nuclear Interface module (Muenster, Germany). Briefly, 4 mg precursor (8-chloro-11-(4-ethylpiperazin-1-yl)-5H-dibenzo[b,e][1,4]diazepin-2-ol) and 8 mg tris(acetonitrile)cyclopentadienylruthenium(II)hexafluorophosphate (STREM, Boston, MA) were dissolved in ethanol (0.3 mL), the solution was heated at 85 °C for 25 min and evaporated to dryness under a stream of argon gas. The residue was dissolved in DMSO (0.5 mL) and acetonitrile (0.5 mL) and the solution was added to a dry complex of [^18F]fluoride and 9 mg 1,3-bis(2,6-di-i-propylphenyl)-2-chloroimidazolium chloride (STREM). The reaction mixture was heated at 130 °C for 30 min, diluted with mixture of 0.5 mL acetonitrile, 0.5 mL water and 0.03 mL TFA and injected onto a semi-preparative HPLC column (Luna C18, 10 micron, 10 mm × 250 mm) and eluted with 23:77 (v:v) acetonitrile:water (0.1% trifluoroacetic acid) at a flow rate of 10 mL min^−1. The radioactive peak corresponding to [^18F]JHU37107 (tR = 9.9 min) was collected in a reservoir containing 50 mL of water and 3 mL aq 8.4% NaHCO3 solution. The diluted product was loaded onto a solid phase extraction cartridge (Waters Oasis HLB plus light) and rinsed with 10 mL sterile saline. The product was eluted with 1000 µL of ethanol through a sterile 0.2 μm filter into a sterile, pyrogen-free vial and 10 mL saline was added through the same filter. The final product [^18F]JHU37107 was then analyzed by analytical HPLC (Luna C18, 10 micron, 4.6 mm × 250 mm; mobile phase 23:77 (v:v) acetonitrile:water (0.1% trifluoroacetic acid), flow rate of 3 mL min^−1; […] .
Total acquisition time was 60 min.

The next data set deals with WT littermates. In words: Locomotor activity in WT littermate rats. The format is in vivo, rat. The protocol: Tyrosine hydroxylase (TH):Cre rats (n = 9; founder, K. Deisseroth lab) or WT littermates (n = 9) were bilaterally injected with AAV2 hSyn-DIO-hM3Dq-mCherry (1ul/hemisphere, Addgene), and allowed to recover for 2 + weeks. Following handling, they were habituated to a Med Associates locomotor testing box (43 × 43 × 30.5 cm) for 2 h on 2 days, then repeatedly tested after separate day doses of DREADD agonists and vehicle. […]. Vehicle was administered on 2 separate days, and average locomotion was used for comparison with DREADD agonists. Cohort 2 underwent the same procedures, but with a 4 h testing session, and the following IP injections: vehicle (x2), JHU37152 (0.01–0.3 mg kg^−1), JHU37160 (0.01–0.3 mg kg^−1). All drugs were dissolved in 5% DMSO in saline, and injected 1 ml kg^−1. Following all tests, rats were transcardially perfused, brains sectioned coronally at 40 µm, and VTA-specific expression confirmed using endogenous mCherry reporter expression, which co-localized nearly exclusively with TH immunoreactivity.

The target of the next data set is T1, cortical hM4Di (Homo sapiens, UniProt P08173, A203G/Y113C).
T1 sequence (P08173 1-479 Y113C/A203G): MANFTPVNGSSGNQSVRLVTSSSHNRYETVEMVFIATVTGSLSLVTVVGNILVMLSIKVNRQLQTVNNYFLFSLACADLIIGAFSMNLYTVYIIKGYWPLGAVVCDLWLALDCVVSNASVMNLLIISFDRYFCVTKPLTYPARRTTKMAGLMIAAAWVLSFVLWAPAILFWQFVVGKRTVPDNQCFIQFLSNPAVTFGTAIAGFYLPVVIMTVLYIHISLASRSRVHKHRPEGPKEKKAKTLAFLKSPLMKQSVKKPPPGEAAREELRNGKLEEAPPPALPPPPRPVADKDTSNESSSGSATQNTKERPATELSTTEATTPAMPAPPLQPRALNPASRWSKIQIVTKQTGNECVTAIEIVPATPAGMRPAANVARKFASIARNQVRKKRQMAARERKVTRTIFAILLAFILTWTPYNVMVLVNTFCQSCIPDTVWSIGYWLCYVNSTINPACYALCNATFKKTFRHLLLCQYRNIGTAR
In words: [11C]clozapine PET DREADD occupancy in rats. The settings on record: rat, read-out: occupancy of cortical hM4Di.

A further data set addresses hM3Dq (Homo sapiens, UniProt P20309, A239G/Y149C). As to the kind of experiment: [11C]clozapine PET DREADD occupancy in AAV-DREADD mice, hM3Dq. The settings on record: 0.1 mg kg-1 IP, individual values, listed as J52.
In data set [2] the test system is mu, kappa, and delta opioid receptors. In words: Binding and enzyme target profile screen (Eurofins). Conditions: competitive binding screen, 10 uM. On the procedure: These experiments were performed by an outside vendor (Eurofins, France). […] In each experiment, the respective reference compound was tested concurrently with the test compound to assess the assay reliability. […] Following incubation, the samples were filtered rapidly under vacuum through glass fiber filters presoaked in a buffer and rinsed several times with an ice-cold buffer using a 48-sample or 96-sample cell harvester. The filters were counted for radioactivity in a scintillation counter using a scintillation cocktail.

Where “and” joins values, the source holds several entries; their conditions need not be identical. Identical values can stand only once. Entries after “also recorded” stand apart in the source; their conditions may differ.

Chain of hM3Dq (P20309 whole entry Y149C/A239G): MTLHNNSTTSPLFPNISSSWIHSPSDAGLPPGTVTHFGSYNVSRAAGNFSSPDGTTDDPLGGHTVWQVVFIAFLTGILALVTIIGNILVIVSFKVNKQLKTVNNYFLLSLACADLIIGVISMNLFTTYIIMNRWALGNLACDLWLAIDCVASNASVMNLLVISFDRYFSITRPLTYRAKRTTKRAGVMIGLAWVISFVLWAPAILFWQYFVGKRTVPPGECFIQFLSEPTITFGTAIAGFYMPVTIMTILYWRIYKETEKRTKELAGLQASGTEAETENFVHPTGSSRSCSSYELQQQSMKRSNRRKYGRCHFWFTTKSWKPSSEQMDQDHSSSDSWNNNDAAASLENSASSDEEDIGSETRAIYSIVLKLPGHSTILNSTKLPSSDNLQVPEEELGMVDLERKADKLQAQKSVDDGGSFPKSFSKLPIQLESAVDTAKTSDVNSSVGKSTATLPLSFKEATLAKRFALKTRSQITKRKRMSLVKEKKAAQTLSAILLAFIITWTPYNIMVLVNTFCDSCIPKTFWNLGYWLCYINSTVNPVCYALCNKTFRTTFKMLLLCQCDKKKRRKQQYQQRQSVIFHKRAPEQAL
Protocol for cortical hM4Di: (§1) Animals were anesthetized with isoflurane or a mix of ketamine/xylazine and prepped on a stereotaxic apparatus (Kopf, Germany). […] When indicated, animals were pretreated with vehicle or the indicated drug 10 min before the injection of the PET radiotracer. Total acquisition time was 60 min.
In all cases, the PET data were reconstructed and corrected for dead-time and radioactive decay. All qualitative and quantitative assessments of PET images were performed using the PMOD software environment (PMOD Technologies, Zurich Switzerland). Binding potential BPND (a relative measure of specific binding) was calculated using a reference tissue model using the cerebellum as a reference tissue in rodents. In macaques, the kinetic data were fitted to a two-tissue compartment model and the concentration of parent in plasma was used as an input function, then the volume of distribution ratios compared to cerebellum were calculated to establish BPND. […] Receptor occupancy was calculated using the formula: occupancy = (BPND^0 − BPND^Drug)/BPND^0 × 100, where BPND^0 is the binding potential of the baseline condition and BPND^Drug the binding potential when the animals were pretreated with the drug.
Protocol for hM3Dq: as §1
In all cases, the PET data were reconstructed and corrected for dead-time and radioactive decay. All qualitative and quantitative assessments of PET images were performed using the PMOD software environment (PMOD Technologies, Zurich Switzerland). Binding potential BPND (a relative measure of specific binding) was calculated using a reference tissue model using the cerebellum as a reference tissue in rodents. In macaques, the kinetic data were fitted to a two-tissue compartment model and the concentration of parent in plasma was used as an input function, then the volume of distribution ratios compared to cerebellum were calculated to establish BPND. In all cases, the dynamic PET images were coregistered to MRI templates and time-activity curves were generated using predefined volumes of interest (macaques) or manually drawn in rodents and the described analyses were performed. Receptor occupancy was calculated using the formula: occupancy = (BPND^0 − BPND^Drug)/BPND^0 × 100, where BPND^0 is the binding potential of the baseline condition and BPND^Drug the binding potential when the animals were pretreated with the drug.

Take `CCN1CCN(C2=Nc3cc(Cl)ccc3Nc3c(F)cccc32)CC1` [JHU37160, 8-Chloro-11-(4-ethylpiperazin-1-yl)-4-fluoro-5H-dibenzo[b,e][1,4]diazepine]: the “effect on electrical stimulation evoked responses” value in data set [1] is on record as “no effect”. In the data set on DREADDs, the “displacement of [18F]JHU37107 PET signal” value is “displaceable”. For the same compound, the “Locomotor activity, individual animals (Figure 3 Panel F)” value in the data set on WT littermates (dose 0.01, listed as J60) was 108.174 and 103.461 and 68.1848 and 77.4203 and 88.3922 and 59.3537 and 61.4668; in the data set on WT littermates (dose 0.1, listed as J60), 208.38 and 83.765 and 47.1951 and 156.41 and 190.369 and 42.7803 and 81.1685. Besides, at cortical hM4Di, the receptor occupancy at 0.1 mg/kg is roughly 80%.
On to `CCN1CCN(C2=Nc3cc(Cl)ccc3Nc3cccc(F)c32)CC1` [JHU37152, 8-Chloro-11-(4-ethylpiperazin-1-yl)-1-fluoro-5H-dibenzo[b,e][1,4]diazepine], for which the “displacement of in vivo [11C]clozapine binding, hM3Dq” value at hM3Dq was 25.1963 and 16.746 and 26.3837.
For the compound `c1ccc2c(c1)N=C(N1CCNCC1)c1ccccc1N2` [C21], the “binding to opioid receptors” value in data set [2] was “exhibited binding to mu, kappa, and delta opioid receptors; also recorded: binds to opioid receptors”.
